By Kb is commonly meant the equilibrium dissociation constant of an antagonist, usually derived from a functional assay. The term EC50 denotes the midpoint of the concentration-response curve.

A value given as a limit tells only on which side of the number the result lay.

In one assay the target is T1, mGluR2 (Rattus norvegicus, UniProt P31421).
T1 construct: expressed in transfected cells; host or cells: HEK 293
Kind of assay: accumulation of inositol phosphates in transfected HEK 293 cells expressing mGluR2 co-expressed with chimeric G protein. Format: cell-based. How it is done: (§1) For this purpose, the activation of phospholipase C was measured (accumulation of inositol phosphates).
(§2) The HEK 293 cells are cultured in a Dulbecco's modified Eagle medium (DMEM, Gibco BRL) to which 10% of foetal calf serum has been added, and transfected by electroporation as previously described by Gomeza et al., Molecular Pharmacology, 1996, 50:923-930 (1996).
(§3) The electroporation is carried out in a total volume of 300 μl with 10 μg of supporting DNA, plasmid DNA containing mGluR1a (0.3 μg), mGluR2 (2 μg) or mGluR4a (5 μg) and 10^7 cells.
In order to allow activation of the phospholipase C by mGluR2 and mGluR4a, which effect is easier to measure than the inhibition of the production of cAMP, these receptors are co-expressed with chimeric G, Gqo5 and Gqi9 proteins, as described by Gomeza. The pharmacological profiles of these 2 receptors determined according to this method, have already been described as identical to those characterized by measuring the inhibition of the formation of cAMP.
(§4) Determination of the accumulation of inositol phosphates (IP).
(§5) The determination of the accumulation of IP in transfected cells is carried out as described by Gomeza after labelling the cells for approximately 14 hours with [^3H]-myo-inositol (23.4 Ci/mol, NEN, France).
(§6) Stimulation is carried out for 30 minutes in a medium containing 10 mM LiCl in the presence of the drugs tested. The formation of the basic IP is determined after 30 minutes of incubation in the presence of 10 mM LiCl and pyruvate glutamate transaminase (1 U/ml) degrading the glutamate (Glu) and 2 mM of pyruvate in order to avoid the possible effects of Glu released by the cells. The results are expressed in the quantity of IP product with respect to the radioactivity present in the membranes.

The target in the next assay is T2, mGluR4a (Rattus norvegicus, UniProt P31423).
T2 construct: expressed in transfected cells; host or cells: HEK 293
T2 sequence (P31423 33-912): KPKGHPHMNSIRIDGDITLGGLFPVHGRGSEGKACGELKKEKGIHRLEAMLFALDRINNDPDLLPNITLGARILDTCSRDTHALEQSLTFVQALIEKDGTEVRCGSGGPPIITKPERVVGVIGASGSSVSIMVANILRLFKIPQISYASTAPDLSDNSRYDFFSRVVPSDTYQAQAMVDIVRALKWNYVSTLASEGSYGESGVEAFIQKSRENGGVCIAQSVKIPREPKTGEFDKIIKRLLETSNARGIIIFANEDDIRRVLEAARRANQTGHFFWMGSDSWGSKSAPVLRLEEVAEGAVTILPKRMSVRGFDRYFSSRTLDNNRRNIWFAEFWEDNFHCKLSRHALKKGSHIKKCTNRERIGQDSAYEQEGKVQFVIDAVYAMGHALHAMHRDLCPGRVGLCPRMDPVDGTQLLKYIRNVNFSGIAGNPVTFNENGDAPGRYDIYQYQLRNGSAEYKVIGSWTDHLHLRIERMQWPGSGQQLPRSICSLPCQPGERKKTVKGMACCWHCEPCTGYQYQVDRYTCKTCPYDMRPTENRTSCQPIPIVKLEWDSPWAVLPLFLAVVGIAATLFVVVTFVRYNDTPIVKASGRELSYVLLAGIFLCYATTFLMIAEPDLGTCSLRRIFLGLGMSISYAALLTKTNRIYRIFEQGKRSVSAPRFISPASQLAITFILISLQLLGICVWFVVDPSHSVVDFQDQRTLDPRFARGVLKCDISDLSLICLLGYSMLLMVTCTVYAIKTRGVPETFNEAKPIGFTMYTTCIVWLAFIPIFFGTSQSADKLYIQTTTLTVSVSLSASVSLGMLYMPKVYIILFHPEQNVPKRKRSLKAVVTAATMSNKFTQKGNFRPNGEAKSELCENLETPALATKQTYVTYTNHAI
As to the kind of experiment: accumulation of inositol phosphates in transfected HEK 293 cells expressing mGluR4a co-expressed with chimeric G protein. The format is cell-based. As to the method:
as §1, §2, §3, §4, §5, §6

Assay [1] has as its system ionotropic receptors (NMDA, AMPA and kainate receptors). Kind of assay: patch clamp recording of granule cells of the cerebellum. As to conditions: ACPT 1 mM; NMDA or kainate 100 μM. Format: cell-based, mice. How it is done:
Culture and recording of the granule cells of the cerebellum
The granule cells of the cerebellum are cultured from 7 day-old baby mice as described by Van-Vliet, B. J., J. of Neurochemistry, 1989, .52, 1229-1239.
Recording is carried out using the technique known as a “patch clamp” in the full cell configuration and the molecules are applied using a rapid application technique.
Initially, tests were carried out in order to check whether the ACPT's were capable of activating or exercising an antagonist effect vis-à-vis the ionotropic receptors. These tests have shown that none of the ACPT enantiomers induces a current when they are placed in contact with the granule cells of the cerebellum at a concentration of 1 mM.
In the same batches, currents are on the contrary seen to be induced by NMDA (100 μM) or kainate (100 μM, which concentration allows activation of both the AMPA and kainate receptors), as envisaged given the activation of the NMDA and non-NMDA receptors.
In general terms: Patch clamp records ionic current or voltage across a cell membrane.

In another assay the target is T3, mGluR1a (Rattus norvegicus, UniProt P23385).
T3 construct: expressed in transfected cells; host or cells: HEK 293
T3 sequence (P23385 19-1199): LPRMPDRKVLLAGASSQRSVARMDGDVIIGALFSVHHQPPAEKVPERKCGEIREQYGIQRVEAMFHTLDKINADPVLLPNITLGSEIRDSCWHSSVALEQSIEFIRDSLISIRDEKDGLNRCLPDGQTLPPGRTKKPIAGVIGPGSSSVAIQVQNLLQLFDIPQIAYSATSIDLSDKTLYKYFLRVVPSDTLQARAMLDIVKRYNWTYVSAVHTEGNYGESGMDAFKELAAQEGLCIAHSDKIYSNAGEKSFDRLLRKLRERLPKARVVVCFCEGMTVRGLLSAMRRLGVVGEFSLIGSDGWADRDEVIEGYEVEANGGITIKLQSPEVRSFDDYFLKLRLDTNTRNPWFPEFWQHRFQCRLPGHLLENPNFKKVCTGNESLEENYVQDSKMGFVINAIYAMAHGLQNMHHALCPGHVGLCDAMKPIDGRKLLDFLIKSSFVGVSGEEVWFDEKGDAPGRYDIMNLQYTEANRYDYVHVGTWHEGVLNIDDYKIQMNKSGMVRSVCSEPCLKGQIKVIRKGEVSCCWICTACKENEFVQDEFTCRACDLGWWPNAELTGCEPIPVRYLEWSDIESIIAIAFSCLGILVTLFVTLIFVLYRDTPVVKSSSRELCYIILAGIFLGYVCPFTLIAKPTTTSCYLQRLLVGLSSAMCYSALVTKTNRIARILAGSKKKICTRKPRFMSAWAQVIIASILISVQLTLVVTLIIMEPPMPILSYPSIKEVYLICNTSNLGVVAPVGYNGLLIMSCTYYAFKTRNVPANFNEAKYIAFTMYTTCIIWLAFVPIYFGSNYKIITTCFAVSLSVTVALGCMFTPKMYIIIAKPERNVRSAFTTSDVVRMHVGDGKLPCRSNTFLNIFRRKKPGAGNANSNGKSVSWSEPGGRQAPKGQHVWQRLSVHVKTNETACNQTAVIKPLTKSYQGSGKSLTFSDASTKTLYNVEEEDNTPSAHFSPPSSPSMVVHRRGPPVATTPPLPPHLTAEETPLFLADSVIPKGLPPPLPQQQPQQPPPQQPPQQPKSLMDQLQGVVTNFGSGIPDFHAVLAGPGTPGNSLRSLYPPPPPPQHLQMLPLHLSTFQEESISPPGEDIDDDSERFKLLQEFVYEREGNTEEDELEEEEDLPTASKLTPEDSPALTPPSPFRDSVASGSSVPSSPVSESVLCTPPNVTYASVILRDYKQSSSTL
As to the kind of experiment: accumulation of inositol phosphates (phospholipase C activation) in transfected HEK 293 cells expressing mGluR1a. Format: cell-based. As to the method:
as §1, §2, §3, §4, §5, §6

T1 sequence (P31421 19-872): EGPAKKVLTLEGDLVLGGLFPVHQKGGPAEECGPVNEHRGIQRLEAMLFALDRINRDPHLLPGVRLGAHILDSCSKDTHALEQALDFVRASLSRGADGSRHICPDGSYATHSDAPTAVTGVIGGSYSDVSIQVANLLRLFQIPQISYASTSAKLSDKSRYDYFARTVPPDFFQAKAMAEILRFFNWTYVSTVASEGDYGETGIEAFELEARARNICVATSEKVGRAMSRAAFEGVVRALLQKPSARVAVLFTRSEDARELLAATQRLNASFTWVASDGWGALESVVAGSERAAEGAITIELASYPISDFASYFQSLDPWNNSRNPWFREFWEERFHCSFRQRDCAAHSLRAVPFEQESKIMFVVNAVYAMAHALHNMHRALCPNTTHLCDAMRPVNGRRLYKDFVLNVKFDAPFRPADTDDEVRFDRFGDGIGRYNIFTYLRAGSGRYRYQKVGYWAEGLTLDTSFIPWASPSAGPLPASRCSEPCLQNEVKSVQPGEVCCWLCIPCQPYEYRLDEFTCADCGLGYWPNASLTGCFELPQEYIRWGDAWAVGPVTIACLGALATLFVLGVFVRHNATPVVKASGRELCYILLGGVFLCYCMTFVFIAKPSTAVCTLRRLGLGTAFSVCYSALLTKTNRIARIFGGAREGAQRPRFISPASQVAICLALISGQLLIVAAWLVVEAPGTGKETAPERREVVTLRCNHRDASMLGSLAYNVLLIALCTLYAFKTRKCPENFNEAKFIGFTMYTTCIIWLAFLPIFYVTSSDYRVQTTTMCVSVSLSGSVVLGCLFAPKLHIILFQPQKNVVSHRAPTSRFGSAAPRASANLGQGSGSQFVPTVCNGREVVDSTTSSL

On to `NC1(C(=O)O)CC(C(=O)O)C(C(=O)O)C1` (racemic) [(=)-ACPT-III, 1-amino-cyclopentane-1,3,4 tricarboxylic acid], for which the “inhibition of the responses induced by Glu in cells expressing mGluR2, in words” value at mGluR2 is “inhibit the responses induced by Glu”. The Kb at mGluR2 (HEK 293 cells, IP accumulation induced by Glu, Shild representation, read-out: mGluR2 KB (antagonist effect)) is greater than 300 µM; at mGluR4a (IP accumulation induced by Glu, Shild representation, read-out: mGluR4a KB (antagonist effect)), greater than 3000 µM; on mGluR1a (HEK 293 cells, IP accumulation induced by Glu, Shild representation, read-out: mGluR1a KB (antagonist effect)), greater than 300 µM. Moreover, the EC50 at mGluR2 (HEK 293 cells, IP accumulation, read-out: mGluR2 EC50 (agonist effect)) is greater than 3000 µM; on mGluR4a (IP accumulation, read-out: mGluR4a EC50 (agonist effect)), 40 ± 8 µM; on mGluR1a (HEK 293 cells, IP accumulation, read-out: mGluR1a EC50 (agonist effect)), greater than 3000 µM. Besides, the “inhibition of responses induced by NMDA or kainate, in words” value in assay [1] is “No significant inhibition”. The “inhibition of the formation of IP induced by Glu in cells expressing mGluR1a, in words” value at mGluR1a was “inhibit the formation of the IP's induced by the Glu”.

The values above are taken from patent publication US6433014B1, “Compounds consisting in particular of effectors of the central nervous system receptors sensitive excitatory amino acids, preparation and biological applications” (Centre National de la Recherche Scientifique (C.N.R.S.), priority 1997, dated 2002).
